Results reported in US6982330B2, “Carbazole based compound, coloring material, colored high molecular organic material and electroluminescent material” (Dai Nippon Printing Co., LTD, priority 2002, dated 2006).

How the values were obtained:
[1] = Suppressibility of crystallization (film formation ability) of spin-coated layer on glass plate; assay type: physicochemical; details: dried at ambient temperature 30 minutes
Method: A toluene solution containing 2% by weight of the carbazole based compound of the formula (4) synthesized in Example 1 was prepared. Also, the other toluene solution containing 2% by weight of the same carbazole based compound and 2% by weight of an acrylic binder resin was prepared.
For the comparative examples, the other toluene solution containing 2% by weight of the carbazole (available from Sigma Aldrich Co,.) and the still other toluene solution containing 2% by weight of the carbazole and 2% by weight of the acrylic binder resin were prepared.
2 ml of the each toluene solution was dropped on a non-alkaline glass plate with 5 cm-square shape, and carried out a spin coating at 1,000 rotation per minute for about 2 seconds. Thereafter, it was dried at ambient temperature for 30 minutes, and then a surface of the coating layer was observed and evaluation was carried out regarding suitablility of coating and film-formation process and suppressibility of crystallizing.

[2] = Solubility to solvent (toluene or xylene, 2% by weight, 50° C.); assay type: physicochemical; details: added so as to make concentration 2% by weight, stirred at 50° C. for one hour
Method: The carbazole based compound of the formula (4) synthesized in Example 1 was added in the toluene or xylene so as to make concentration at 2% by weight, and then stirred in a thermal condition at 50° C. for one hour.

Compound: c1ccc2c(c1)[nH]c1ccccc12 [carbazole]
- crystallization of coating layer (visual observation) ([1]; toluene solution containing 2% by weight of compound alone): crystallized to an extent that findable by visual observation
- crystallization of coating layer (visual observation) ([1]; toluene solution containing 2% by weight of compound and 2% by weight of acrylic binder resin): crystallized to an extent that findable by visual observation

Compound: c1cc2cccc3c4cccc5cccc(c(c1)c23)c54 [perylene]
- solubility in toluene or xylene [2]: solubility was insufficient
